In patent US6376497B1, “Antifungal azole derivatives having a fluorinated vinyl group and process for preparing same” (Korea Research Institute of Chemical Technology, priority 1999, dated 2002):

Key:
Experiment in all cases: In vitro antifungal activity, microbroth dilution MIC
Assay type in all cases: cell-based
Details in all cases: RPMI-1640, 35° C., 4 to 48 hours, no growth observed
[1] = test system: Aspergillus furnigatus B. 19119
How it was run: (§1)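 Broth microdilution adapted from NCCLS M27, in RPMI-1640 with 0.165 M MOPS, pH 7.0. Yeast or mould inoculum at 2×10^3 CFU/ml was mixed 1:1 with DMSO-derived compound solutions (200 to 0.10 μg/ml before mixing) and incubated at 35 °C for 4 to 48 h. MIC was the concentration showing no growth.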

[2] = test system: Aspergillus niger A. 16404
How it was run: as §1

[3] = test system: Candida albicans A. 10231
How it was run: as §1

Candida albicans C1-2 = test system: Candida albicans C1-2
How it was run: as §1

[4] = test system: Candida albicans IFO. 1385
How it was run: as §1

Candida krusei K. 11655 = test system: Candida krusei K. 11655
How it was run: as §1

[5] = test system: Candida parapsitosis A. 7330
How it was run: as §1

[6] = test system: Candida pseudotropicalis K. 11658
How it was run: as §1

[7] = test system: Candida tropicalis A. 13803
How it was run: as §1

[8] = test system: Cryptococcus neoformans A. 34144
How it was run: as §1

[9] = test system: Cryptococcus neoformans B. 42419
How it was run: as §1

[10] = test system: Cryptococcus neoformans IFM. 40092
How it was run: as §1

[11] = test system: Torulopsis glabrata B. 16205
How it was run: as §1

[12] = test system: Trichophyton mentagrophytes A. 9129
How it was run: as §1

[13] = test system: Trichophyton mentagrophytes B. 32663
How it was run: as §1

SMILES | Minimal inhibitory concentration(MIC), A furnigatus B. 19119 [1] [µg/mL] | Minimal inhibitory concentration(MIC), A. niger A. 16404 [2] [µg/mL] | Minimal inhibitory concentration(MIC), C. albicans A. 10231 [3] [µg/mL] | Minimal inhibitory concentration(MIC), C. albicans C1-2 (Candida albicans C1-2) [µg/mL] | Minimal inhibitory concentration(MIC), C. albicans IFO. 1385 [4] [µg/mL] | Minimal inhibitory concentration(MIC), C. krusei K. 11655 (Candida krusei K. 11655) [µg/mL] | Minimal inhibitory concentration(MIC), C. parapsitosis A. 7330 [5] [µg/mL] | Minimal inhibitory concentration(MIC), C. pseudotropicalis K. 11658 [6] [µg/mL] | Minimal inhibitory concentration(MIC), C. tropicalis A. 13803 [7] [µg/mL] | Minimal inhibitory concentration(MIC), Cry. neoformans A. 34144 [8] [µg/mL] | Minimal inhibitory concentration(MIC), Cry. neoformans B. 42419 [9] [µg/mL] | Minimal inhibitory concentration(MIC), Cry. neoformans IFM. 40092 [10] [µg/mL] | Minimal inhibitory concentration(MIC), T. glabrata B. 16205 [11] [µg/mL] | Minimal inhibitory concentration(MIC), T. mentagrophytes A. 9129 [12] [µg/mL] | Minimal inhibitory concentration(MIC), T. mentagrophytes B. 32663 [13] [µg/mL]
FC(Oc1ccc(OCC2COC(Cn3ccnc3)(c3ccc(Cl)cc3Cl)O2)cc1)=C(c1cc(Cl)cc(Cl)c1)C(F)(F)F (mixture of isomers) [Ex. 104] | >100 | >100 | 100 | >100 | 3.13 | >100 | >100 | >100 | >100 | 3.13 | 3.13 | 0.78 | 100 | 50.0 | 25.0
COc1ccc(C=C(F)Oc2ccc(OCC3COC(Cn4ccnc4)(c4ccc(F)cc4F)O3)cc2)cc1 (mixture of isomers) [Ex. 105] | >100 | >100 | 50.0 | 100 | 6.25 | >100 | >100 | >100 | >100 | 6.25 | 12.5 | 1.56 | >100 | 100 | 100
FC(Oc1ccc(OCC2COC(Cn3ccnc3)(c3ccc(F)cc3F)O2)cc1)=C(c1ccccc1)C(F)(F)F (mixture of isomers) [Ex. 106] | >100 | >100 | 100 | 50.0 | 1.56 | 3.13 | 3.13 | 3.13 | >100 | 1.56 | 1.56 | 0.39 | 50.0 | 3.13 | 1.56
Cc1cccc(C(=C(F)Oc2ccc(OCC3COC(Cn4ccnc4)(c4ccc(F)cc4F)O3)cc2)C(F)(F)F)c1 (mixture of isomers) [Ex. 107] | >100 | >100 | 100 | 50.0 | 3.13 | >100 | >100 | 100 | >100 | 1.56 | 3.13 | 0.39 | 100 | 12.5 | 3.13
CCc1ccc(C(=C(F)Oc2ccc(OCC3COC(Cn4ccnc4)(c4ccc(F)cc4F)O3)cc2)C(F)(F)F)cc1 (mixture of isomers) [Ex. 108] | >100 | >100 | >100 | 100 | 6.25 | >100 | >100 | >100 | >100 | 3.13 | 3.13 | 0.78 | >100 | 50.0 | 12.5
